This test has as its target T1, Androgen Receptor dual T878A/L702H mutant protein (Homo sapiens, UniProt P10275, L702H/T878A).
T1 construct: host or cells: MDA-PCa-2b
T1 sequence (P10275 1-920 L702H/T878A): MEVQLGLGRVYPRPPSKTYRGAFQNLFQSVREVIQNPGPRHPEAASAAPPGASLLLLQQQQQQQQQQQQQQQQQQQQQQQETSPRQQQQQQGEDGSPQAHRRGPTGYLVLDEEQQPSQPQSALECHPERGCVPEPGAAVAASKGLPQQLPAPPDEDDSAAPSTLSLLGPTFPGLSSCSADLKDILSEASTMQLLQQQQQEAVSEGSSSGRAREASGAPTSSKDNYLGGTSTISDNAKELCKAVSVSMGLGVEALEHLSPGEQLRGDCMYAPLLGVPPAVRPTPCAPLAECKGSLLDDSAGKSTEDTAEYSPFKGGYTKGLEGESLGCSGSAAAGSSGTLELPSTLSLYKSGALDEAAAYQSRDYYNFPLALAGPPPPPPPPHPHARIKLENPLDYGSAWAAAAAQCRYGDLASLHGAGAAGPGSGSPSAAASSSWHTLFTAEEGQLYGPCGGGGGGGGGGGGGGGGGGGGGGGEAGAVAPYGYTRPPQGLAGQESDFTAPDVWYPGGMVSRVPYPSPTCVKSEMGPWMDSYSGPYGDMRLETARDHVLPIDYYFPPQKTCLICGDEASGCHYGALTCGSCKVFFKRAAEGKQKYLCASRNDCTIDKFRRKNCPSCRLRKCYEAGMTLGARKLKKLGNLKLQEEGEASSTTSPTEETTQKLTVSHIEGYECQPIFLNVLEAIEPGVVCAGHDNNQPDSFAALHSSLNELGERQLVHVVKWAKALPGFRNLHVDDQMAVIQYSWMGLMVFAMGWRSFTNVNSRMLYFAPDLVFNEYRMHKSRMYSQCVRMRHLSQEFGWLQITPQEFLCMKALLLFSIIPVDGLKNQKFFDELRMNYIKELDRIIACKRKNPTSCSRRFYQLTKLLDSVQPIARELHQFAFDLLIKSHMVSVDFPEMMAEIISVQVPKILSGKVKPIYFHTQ
Nature of the test: Dual Mutant (T878A/L702H) Androgen Receptor Degradation Assay (HTRF, MDA-PCa-2b cells). It counts as cell-based. The settings on record: 18 h, 18 h incubation, read-out: mean asymptote max. The essentials:
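PROTACs tested as 11-point, 3-fold dilutions on 10,000 cells for 18 h at 37 °C. Remaining AR read by HTRF (665/620 nm ratio) after lysis, normalised to DMSO-treated cells (0%) and cell-free medium (100%). Relative DC50 from 4-parameter fit inflection, absolute DC50 interpolated at 50% degradation; Dmax is maximum observed degradation.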
In general terms: TR-FRET usually uses a lanthanide donor and a delayed reading to cut background.

Each structure is given as a SMILES string.

As for `CC1(C)[C@H](NC(=O)c2ccc(N3CCC(CN4CCC(n5ccc6c(N7CCC(=O)NC7=O)c(F)ccc65)CC4)CC3)c(F)c2)C(C)(C)[C@H]1Oc1ccc(C#N)c2ncccc12` [Example 51, N-((1r,3r)-3-((8-Cyanoquinolin-5-yl)oxy)-2,2,4,4-tetramethylcyclobutyl)-4-(4-((4-(4-(2,4-dioxotetrahydropyrimidin-1(2H)-yl)-5-fluoro-1H-indol-1-yl)piperidin-1-yl)methyl)piperidin-1-yl)-3-fluorobenzamide], the Dmax was not below 50%.

The values above are taken from patent US12577231B2, “Androgen receptor PROTACS” (GlaxoSmithKline Intellectual Property Development Limited, priority 2023, dated 2026).
